Source: patent publication US7169579B2, “Method of isolating Streptococcus sobrinus and selection medium” (Nihon University, priority 2001, dated 2007)
≈ marks a conversion by molar mass, not a printed value. Like-named read-outs stand apart in the source and are kept apart here. One block for each compound: values may come before it.

Columns and labels:
Format in all cases: cell-based
Streptococcus mutans [1] = assay: Susceptibility test to antibiotics, microbroth dilution method (MIC); conditions: for susceptibilities of Streptococcus mutans relative to those of Streptococcus sobrinus: from MICs of Table 2; for difference between Streptococcus mutans and Streptococcus sobrinus in their susceptibilities: in words, from MICs of Tables 2 and 3
Method: (§1) The susceptibility test was carried out in accordance with microbroth dilution method.
(§2) The above-described antibiotics were dissolved in an appropriate solution, respectively, and the respective antibiotic solutions were divided into serial two-fold dilutions in a 96-well microtiter plates containing BHI broth. The bacteria were precultured in BHI broth, respectively, and inoculated into the wells containing the antibiotic solution to make a final concentration of the bacteria to be 1×10^4 cells/well, respectively. The plates were anaerobically incubated at a temperature of 37° C. for 48 hours. After mixing the broth in each well by the use of a pipette, the absorbance at 550 nm in each well was measured with a microplate reader (manufactured by Corona Electric Co., Ibaraki, Japan), to determine bacterial growth. The antibiotic concentration at which no bacterial growth was observed was defined as the minimal inhibitory concentration (MIC).

Streptococcus sobrinus [2] = assay: as above
Method: as §1, §2

Streptococcus mutans [3] = assay: Recovery from no-growth wells on MS agar: bactericidal or bacteriostatic
Method: (§3) Aliquots of 10 μl of the broth in the well, which no bacterial growth was observed were inoculated onto Mitis Salivarius Agar (MS medium; manufactured by Difco) plates, respectively, and anaerobically incubated at a temperature of 37° C. for 48 hours. The recovery of the inoculated bacteria was calculated to estimate which the mechanism of growth inhibition was bactericidal or bacteriostatic.

Streptococcus sobrinus [4] = assay: as above
Method: as §3

[5] = Streptococcus mutans, Streptococcus mutans 10449 (serotype c), read-out: MIC
[6] = Streptococcus mutans, Streptococcus mutans Ingbritt, serotype c, read-out: MIC
[7] = Streptococcus mutans, Streptococcus mutans JC2 (serotype c), read-out: MIC
[8] = Streptococcus mutans, Streptococcus mutans LM7, serotype e, read-out: MIC
[9] = Streptococcus mutans, Streptococcus mutans NUM-Sme1, serotype e, read-out: MIC
[10] = Streptococcus mutans, Streptococcus mutans NUM-Smf1, serotype f, read-out: MIC
[11] = Streptococcus mutans, Streptococcus mutans OMZ175, serotype f, read-out: MIC
[12] = Streptococcus mutans, Streptococcus mutans PS14, serotype c, read-out: MIC
[13] = Streptococcus mutans, strains of Table 2, read-out: MIC to Streptococcus mutans
[14] = Streptococcus mutans, strains of serotype f of Streptococcus mutans, summary of Table 3, read-out: MIC
[15] = Streptococcus mutans, strains of serotypes c and e of Streptococcus mutans, summary of Table 3, read-out: MIC
[16] = Streptococcus sobrinus, Streptococcus sobrinus 0MZ176 (serotype d), read-out: MIC
[17] = Streptococcus sobrinus, Streptococcus sobrinus B-13 (serotype d), read-out: MIC
[18] = Streptococcus sobrinus, Streptococcus sobrinus NIDR6715, serotype g, read-out: MIC
[19] = Streptococcus sobrinus, Streptococcus sobrinus NUM-Ssd1, serotype d, read-out: MIC
[20] = Streptococcus sobrinus, Streptococcus sobrinus NUM-Ssd2, serotype d, read-out: MIC
[21] = Streptococcus sobrinus, Streptococcus sobrinus OMZ65, serotype g, read-out: MIC
[22] = Streptococcus sobrinus, strains of Table 2, read-out: MIC to Streptococcus sobrinus
[23] = Streptococcus mutans strains of Table 3
[24] = Streptococcus mutans, strains of Table 2
[25] = Streptococcus sobrinus strains of Table 3
[26] = Streptococcus sobrinus, strains of Table 2
[27] = Streptococcus mutans 10449 (serotype c)

SMILES: C[C@H]1[C@H](NC(=O)/C(=N\OC(C)(C)C(=O)O)c2csc(N)n2)C(=O)N1S(=O)(=O)O [Aztreonam]
- MIC (Streptococcus mutans [1]; [5]): 125 µg/mL (≈ 287 µM)
- MIC (Streptococcus mutans [1]; [6]): 125 µg/mL (≈ 287 µM)
- MIC (Streptococcus mutans [1]; [7]): 125 µg/mL (≈ 287 µM)
- MIC (Streptococcus mutans [1]; [8]): 125 µg/mL (≈ 287 µM)
- MIC (Streptococcus mutans [1]; [9]): 125 µg/mL (≈ 287 µM)
- MIC (Streptococcus mutans [1]; [10]): 250 µg/mL (≈ 574 µM)
- MIC (Streptococcus mutans [1]; [11]): 250 µg/mL (≈ 574 µM)
- MIC (Streptococcus mutans [1]; [12]): 125 µg/mL (≈ 287 µM)
- MIC (Streptococcus mutans [1]; [13]): 125 µg/mL (≈ 287 µM)
- MIC (Streptococcus mutans [1]; [14]): 250 µg/mL (≈ 574 µM)
- MIC (Streptococcus mutans [1]; [15]): 125 µg/mL (≈ 287 µM)
- susceptibilities of Streptococcus mutans relative to those of Streptococcus sobrinus (Streptococcus mutans [1]): 16 fold
- MIC (Streptococcus sobrinus [2]; [16]): 2000 µg/mL (≈ 4590 µM)
- MIC (Streptococcus sobrinus [2]; [17]): 2000 µg/mL (≈ 4590 µM)
- MIC (Streptococcus sobrinus [2]; [18]): 2000 µg/mL (≈ 4590 µM)
- MIC (Streptococcus sobrinus [2]; [19]): 2000 µg/mL (≈ 4590 µM)
- MIC (Streptococcus sobrinus [2]; [20]): 2000 µg/mL (≈ 4590 µM)
- MIC (Streptococcus sobrinus [2]; [21]): 2000 µg/mL (≈ 4590 µM)
- MIC (Streptococcus sobrinus [2]; [22]): 2000 µg/mL (≈ 4590 µM)
- mode of action (bactericidal or bacteriostatic) (Streptococcus mutans [3]; [23]): bactericidal
- mode of action (bactericidal or bacteriostatic) (Streptococcus mutans [3]; [24]): bactericidal
- mode of action (bactericidal or bacteriostatic) (Streptococcus sobrinus [4]; [25]): bactericidal
- mode of action (bactericidal or bacteriostatic) (Streptococcus sobrinus [4]; [26]): bactericidal

- MIC (Streptococcus mutans [1]; [5]): 0.1 µg/mL (≈ 0.299 µM)
- MIC (Streptococcus mutans [1]; [7]): 0.1 µg/mL (≈ 0.299 µM)
- MIC (Streptococcus sobrinus [2]; [16]): 0.05 µg/mL (≈ 0.15 µM)
- MIC (Streptococcus sobrinus [2]; [17]): 0.05 µg/mL (≈ 0.15 µM)
SMILES: CC1(C)S[C@@H]2[C@H](NC(=O)Cc3ccccc3)C(=O)N2[C@H]1C(=O)O [Benzylpenicillin]
- susceptibilities of Streptococcus sobrinus relative to those of Streptococcus mutans (Streptococcus sobrinus [2]; from MICs of Table 2): twice as high

- MIC (Streptococcus mutans [1]; [5]): 125 µg/mL (≈ 268 µM)
- MIC (Streptococcus mutans [1]; [6]): 125 µg/mL (≈ 268 µM)
- MIC (Streptococcus mutans [1]; [7]): 125 µg/mL (≈ 268 µM)
- MIC (Streptococcus mutans [1]; [8]): 125 µg/mL (≈ 268 µM)
- MIC (Streptococcus mutans [1]; [9]): 125 µg/mL (≈ 268 µM)
- MIC (Streptococcus mutans [1]; [10]): 250 µg/mL (≈ 536 µM)
- MIC (Streptococcus mutans [1]; [11]): 250 µg/mL (≈ 536 µM)
- MIC (Streptococcus mutans [1]; [12]): 125 µg/mL (≈ 268 µM)
- MIC (Streptococcus mutans [1]; [13]): 125 µg/mL (≈ 268 µM)
- MIC (Streptococcus mutans [1]; [14]): 250 µg/mL (≈ 536 µM)
- MIC (Streptococcus mutans [1]; [15]): 125 µg/mL (≈ 268 µM)
- MIC (Streptococcus sobrinus [2]; [16]): 2000 µg/mL (≈ 4290 µM)
- MIC (Streptococcus sobrinus [2]; [17]): 2000 µg/mL (≈ 4290 µM)
- MIC (Streptococcus sobrinus [2]; [18]): 2000 µg/mL (≈ 4290 µM)
- MIC (Streptococcus sobrinus [2]; [19]): 2000 µg/mL (≈ 4290 µM)
- MIC (Streptococcus sobrinus [2]; [20]): 2000 µg/mL (≈ 4290 µM)
- MIC (Streptococcus sobrinus [2]; [21]): 1000 µg/mL (≈ 2140 µM)
- MIC (Streptococcus sobrinus [2]; [22]): 2000 µg/mL (≈ 4290 µM)
SMILES: NC(=O)OC[C@@H]1[C@H](NC(=O)/C(=N\OCC(=O)O)c2csc(N)n2)C(=O)N1S(=O)(=O)O [Carumonam]
- susceptibilities of Streptococcus mutans relative to those of Streptococcus sobrinus (Streptococcus mutans [1]): 16 fold
- mode of action (bactericidal or bacteriostatic) (Streptococcus mutans [3]; [23]): bactericidal
- mode of action (bactericidal or bacteriostatic) (Streptococcus mutans [3]; [24]): bactericidal
- mode of action (bactericidal or bacteriostatic) (Streptococcus sobrinus [4]; [25]): bactericidal
- mode of action (bactericidal or bacteriostatic) (Streptococcus sobrinus [4]; [26]): bactericidal

- MIC (Streptococcus mutans [1]; [5]): 0.25 µg/mL (≈ 0.55 µM)
- MIC (Streptococcus mutans [1]; [7]): 0.25 µg/mL (≈ 0.55 µM)
- MIC (Streptococcus sobrinus [2]; [16]): 0.25 µg/mL (≈ 0.55 µM)
- MIC (Streptococcus sobrinus [2]; [17]): 0.5 µg/mL (≈ 1.1 µM)
SMILES: Cc1nnc(SCC2=C(C(=O)O)N3C(=O)[C@@H](NC(=O)Cn4cnnn4)[C@H]3SC2)s1 [Cefazoline]
- difference between Streptococcus mutans and Streptococcus sobrinus in their susceptibilities (Streptococcus mutans [1]): no significant difference

- MIC (Streptococcus mutans [1]; [5]): 3.13 µg/mL (≈ 7.32 µM)
- MIC (Streptococcus mutans [1]; [7]): 3.13 µg/mL (≈ 7.32 µM)
- MIC (Streptococcus sobrinus [2]; [16]): 12.5 µg/mL (≈ 29.2 µM)
- MIC (Streptococcus sobrinus [2]; [17]): 3.13 µg/mL (≈ 7.32 µM)
SMILES: CO[C@@]1(NC(=O)Cc2cccs2)C(=O)N2C(C(=O)O)=C(COC(N)=O)CS[C@@H]21 [Cefoxitin]
- difference between Streptococcus mutans and Streptococcus sobrinus in their susceptibilities (Streptococcus mutans [1]): no significant difference
- susceptibility of OMZ176 strain relative to the other bacterial strains (Streptococcus sobrinus [2]; Streptococcus sobrinus OMZ176 vs other strains of Table 2): approximately 4 times

- MIC (Streptococcus mutans [1]; [5]): 1.25 µg/mL (≈ 3.6 µM)
- MIC (Streptococcus mutans [1]; [7]): 1.25 µg/mL (≈ 3.6 µM)
- MIC (Streptococcus sobrinus [2]; [16]): 1.25 µg/mL (≈ 3.6 µM)
- MIC (Streptococcus sobrinus [2]; [17]): 1.25 µg/mL (≈ 3.6 µM)
SMILES: CC1=C(C(=O)O)N2C(=O)[C@@H](NC(=O)[C@H](N)c3ccccc3)[C@H]2SC1 [Cephalexin]
- difference between Streptococcus mutans and Streptococcus sobrinus in their susceptibilities (Streptococcus mutans [1]): no significant difference

SMILES: O=C(Cc1cccs1)N[C@@H]1C(=O)N2C(C(=O)[O-])=C(C[n+]3ccccc3)CS[C@H]12 [Cephaloridine]
- MIC (Streptococcus mutans [1]; Streptococcus mutans): 0.025 µg/mL (≈ 0.0602 µM)
- MIC (Streptococcus mutans [1]; [27]): 0.025 µg/mL (≈ 0.0602 µM)
- difference between Streptococcus mutans and Streptococcus sobrinus in their susceptibilities (Streptococcus mutans [1]): no significant difference
- MIC (Streptococcus sobrinus [2]; Streptococcus sobrinus): 0.025 µg/mL (≈ 0.0602 µM)
- MIC (Streptococcus sobrinus [2]; Streptococcus sobrinus B-13 (serotype d)): 0.025 µg/mL (≈ 0.0602 µM)

- MIC (Streptococcus mutans [1]; [5]): 0.63 µg/mL (≈ 1.45 µM)
- MIC (Streptococcus mutans [1]; [7]): 0.63 µg/mL (≈ 1.45 µM)
- MIC (Streptococcus sobrinus [2]; [16]): 1.25 µg/mL (≈ 2.87 µM)
- MIC (Streptococcus sobrinus [2]; [17]): 1.25 µg/mL (≈ 2.87 µM)
SMILES: Cc1onc(-c2ccccc2Cl)c1C(=O)N[C@@H]1C(=O)N2[C@@H]1SC(C)(C)[C@@H]2C(=O)O [Cloxacillin]
- susceptibilities of Streptococcus mutans relative to those of Streptococcus sobrinus (Streptococcus mutans [1]): twice as high

SMILES: C[C@@H](O)[C@H]1C(=O)N2C(C(=O)O)=C(SCCN=CN)C[C@H]12 [Imipenem]
- MIC (Streptococcus mutans [1]; Streptococcus mutans): 0.125 µg/mL (≈ 0.418 µM)
- MIC (Streptococcus mutans [1]; [27]): 0.125 µg/mL (≈ 0.418 µM)
- MIC (Streptococcus sobrinus [2]; [16]): 0.031 µg/mL (≈ 0.104 µM)
- MIC (Streptococcus sobrinus [2]; [17]): 0.016 µg/mL (≈ 0.0534 µM)
